From ChEMBL document CHEMBL5523719, “Structure-activity relationship study of new carbazole sulfonamide derivatives as anticancer agents with dual-target mechanism” (Eur J Med Chem, 2024)
Active and inactive are the calls of the source. The rule behind the calls is not given here.

Legend:
MDA-MB-231 = experiment: Antiproliferation activity against human MDA-MB-231 cells measured after 72 hrs incubation by MTT assay; format: functional, cell-based; conditions: MDA-MB-231, 72 h
MIA PaCa-2 = experiment: Antiproliferation activity against human MIA PaCa-2 cells measured after 72 hrs incubation by MTT assay; format: functional, cell-based; conditions: MIA PaCa-2, 72 h
NCI-H460 = experiment: Antiproliferation activity against human NCI-H460 cells measured after 72 hrs incubation by MTT assay; format: functional, cell-based; conditions: NCI-H460, 72 h
KB = experiment: Antiproliferation activity against human KB cells measured after 72 hrs incubation by MTT assay; format: functional, cell-based
L02 = experiment: Antiproliferation activity against human L02 cells measured after 72 hrs incubation by MTT assay; format: functional, cell-based; conditions: L02, 72 h
MCF7 [1] = experiment: In vivo antitumor activity against human MCF7 cells xenografted in BALB/c mouse assessed as inhibition of tumor growth treated iv every other day for 26 days; format: functional, organism-based; conditions: time 26.0 day
MCF7 [2] = experiment: In vivo antitumor activity against human MCF7 cells xenografted in BALB/c mouse assessed as decrease in tumor volume treated at 5 mg/kg, iv every other day for 26 days relative to control; format: functional; conditions: MCF7, 624 h, time 26 day
MCF7 [3] = experiment: In vivo antitumor activity against human MCF7 cells xenografted in BALB/c mouse assessed as decrease in tumor volume treated at 10 mg/kg, iv every other day for 26 days relative to control; format: functional; conditions: MCF7, 624 h, time 26 day
[4] = Toxicity in BALB/c mouse xenografted with human MCF7 cells assessed as lesions in heart at 10 mg/kg, iv every other day for 26 days by H and E staining based assay; format: organism-based; conditions: in vivo, 624 h, time 26 day
[5] = Toxicity in BALB/c mouse xenografted with human MCF7 cells assessed as lesions in liver at 10 mg/kg, iv every other day for 26 days by H and E staining based assay; format: organism-based; conditions: in vivo, 624 h, time 26 day
[6] = Toxicity in BALB/c mouse xenografted with human MCF7 cells assessed as lesions in spleen at 10 mg/kg, iv every other day for 26 days by H and E staining based assay; format: organism-based; conditions: in vivo, 624 h, time 26 day
[7] = Toxicity in BALB/c mouse xenografted with human MCF7 cells assessed as lesions in lung at 10 mg/kg, iv every other day for 26 days by H and E staining based assay; format: organism-based; conditions: in vivo, 624 h, time 26 day
[8] = Toxicity in BALB/c mouse xenografted with human MCF7 cells assessed as lesions in kidney at 10 mg/kg, iv every other day for 26 days by H and E staining based assay; format: organism-based; conditions: in vivo, 624 h, time 26 day
MCF7 [9] = experiment: In vivo antitumor activity against human MCF7 cells xenografted in BALB/c mouse assessed as inhibition of Ki-67 expression treated at 10 mg/kg, iv every other day for 26 days; format: functional, organism-based; conditions: time 26.0 day
MCF7 [10] = experiment: In vivo antitumor activity against human MCF7 cells xenografted in BALB/c mouse assessed as increase in cleaved caspase-3 treated at 10 mg/kg, iv every other day for 26 days; format: functional, organism-based; conditions: time 26.0 day

IC50 (MDA-MB-231): 5.72 nM | IC50 (MIA PaCa-2): 14.4 nM | IC50 (NCI-H460): 18.5 nM | IC50 (KB): 36.1 nM
Compound: COc1cc(NS(=O)(=O)c2ccc3c(c2)c2ccc(OP(=O)([O-])[O-])cc2n3C)c(OC)cc1Cl.[Na+].[Na+]
IC50 (L02): 55.3 nM | TGI (MCF7 [1]): Dose-Dependent Effect | inhibition in vivo at 5 mg/kg (MCF7 [2]): 56% | inhibition in vivo at 10 mg/kg (MCF7 [3]): 73% | Activity [4]: Non-Toxic | Activity [5]: Non-Toxic | Activity [6]: Non-Toxic | Activity [7]: Non-Toxic | Activity [8]: Non-Toxic | Activity (MCF7 [9]): Active | Activity (MCF7 [10]): Active
